Structures can show the parent of a compound that is named as a salt.
Legend:
[1] = biological target: T1, human TYK2 kinase domain (JH1) (Homo sapiens, UniProt P29597); experiment: JH1 biochemical assay for TYK2 (ADP-Glo kinase assay, recombinant JH1 catalytic domain, JAK3-974 peptide, 10 μM ATP)
T1 construct: recombinantly generated catalytic kinase (also known as JH1) domain of human JAK1, JAK2, JAK3 and TYK2
T1 sequence (P29597 897-1176 limits assumed): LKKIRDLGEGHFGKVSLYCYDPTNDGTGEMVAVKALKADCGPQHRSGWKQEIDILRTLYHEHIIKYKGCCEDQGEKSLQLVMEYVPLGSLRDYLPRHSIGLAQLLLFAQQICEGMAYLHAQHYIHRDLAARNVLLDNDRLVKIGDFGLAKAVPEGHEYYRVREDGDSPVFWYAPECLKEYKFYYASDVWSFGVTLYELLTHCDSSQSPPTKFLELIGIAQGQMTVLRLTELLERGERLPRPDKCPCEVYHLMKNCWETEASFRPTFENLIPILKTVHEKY
Procedure, shortened: (§1)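 Reactions ran 100 min with 50 μM substrate peptide (JAK3-342 for JAK1 at 4 nM enzyme; JAK3-974 for JAK2 0.2 nM, JAK3 0.3 nM, TYK2 2 nM), and ADP formed was read by ADP-Glo luminescence. Eleven-point 3-fold series from 10 or 1 μM; IC50 fitted by 4-parameter logistic model.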

[2] = biological target: T2, human JAK1 kinase domain (JH1) (Homo sapiens, UniProt P23458); experiment: JH1 biochemical assay for JAK1 (ADP-Glo kinase assay, recombinant JH1 catalytic domain, JAK3-342 peptide, 35 μM ATP)
T2 construct: recombinantly generated catalytic kinase (also known as JH1) domain of human JAK1, JAK2, JAK3 and TYK2
Procedure, shortened: as §1

[3] = biological target: T3, human JAK2 kinase domain (JH1) (Homo sapiens, UniProt O60674); experiment: JH1 biochemical assay for JAK2 (ADP-Glo kinase assay, recombinant JH1 catalytic domain, JAK3-974 peptide, 15 μM ATP)
T3 construct: recombinantly generated catalytic kinase (also known as JH1) domain of human JAK1, JAK2, JAK3 and TYK2
Procedure, shortened: as §1

[4] = biological target: T4, human JAK3 kinase domain (JH1) (Homo sapiens, UniProt P52333); experiment: JH1 biochemical assay for JAK3 (ADP-Glo kinase assay, recombinant JH1 catalytic domain, JAK3-974 peptide, 4 μM ATP)
T4 construct: recombinantly generated catalytic kinase (also known as JH1) domain of human JAK1, JAK2, JAK3 and TYK2
Procedure, shortened: as §1

T2 sequence (P23458 875-1153 limits assumed): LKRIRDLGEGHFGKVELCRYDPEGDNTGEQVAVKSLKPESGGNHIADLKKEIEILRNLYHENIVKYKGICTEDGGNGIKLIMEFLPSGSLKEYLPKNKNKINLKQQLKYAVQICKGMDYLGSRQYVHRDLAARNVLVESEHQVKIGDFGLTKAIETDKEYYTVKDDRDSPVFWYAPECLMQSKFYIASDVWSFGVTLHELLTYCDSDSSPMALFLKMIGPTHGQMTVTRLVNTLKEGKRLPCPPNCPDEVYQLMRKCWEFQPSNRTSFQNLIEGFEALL
T3 sequence (O60674 849-1124 limits assumed): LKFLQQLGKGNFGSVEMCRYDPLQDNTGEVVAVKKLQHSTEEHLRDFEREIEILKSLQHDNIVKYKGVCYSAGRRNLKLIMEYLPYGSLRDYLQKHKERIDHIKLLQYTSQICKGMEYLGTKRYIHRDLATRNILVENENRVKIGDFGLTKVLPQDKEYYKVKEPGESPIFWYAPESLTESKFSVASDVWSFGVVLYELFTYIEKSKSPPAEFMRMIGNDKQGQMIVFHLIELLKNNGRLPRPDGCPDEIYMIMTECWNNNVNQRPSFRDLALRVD
T4 sequence (P52333 822-1111 limits assumed): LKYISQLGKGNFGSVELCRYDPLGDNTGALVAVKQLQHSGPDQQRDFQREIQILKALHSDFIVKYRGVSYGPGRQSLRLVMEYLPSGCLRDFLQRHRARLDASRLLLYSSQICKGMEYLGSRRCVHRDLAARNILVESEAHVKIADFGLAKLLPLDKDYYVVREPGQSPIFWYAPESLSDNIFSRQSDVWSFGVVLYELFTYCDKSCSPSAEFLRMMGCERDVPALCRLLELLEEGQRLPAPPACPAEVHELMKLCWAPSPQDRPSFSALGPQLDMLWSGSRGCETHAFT

| Compound | IC50 ([1]; TYK2 JH1, ADP-Glo) [nM] | IC50 ([2]; JAK1 JH1, ADP-Glo) [nM] | IC50 ([3]; JAK2 JH1, ADP-Glo) [nM] | IC50 ([4]; JAK3 JH1, ADP-Glo) [nM] | IC50 ([1]; JH1 kinase domain, ADP-Glo) [nM] | IC50 ([2]; JH1 kinase domain, ADP-Glo) [nM] | IC50 ([3]; JH1 kinase domain, ADP-Glo) [nM] | IC50 ([4]; JH1 kinase domain, ADP-Glo) [nM] |
| --- | --- | --- | --- | --- | --- | --- | --- | --- |
| COC[C@]1(C#N)CCN(c2ccnn3cc(-c4cnn(C)c4)cc23)C1=O (single isomer, unassigned) [Example 41] | – | – | – | – | > 100 | > 10000 | 5000 to 10000 | 5000 to 10000 |
| COc1cc(-c2cc3c(N4C[C@@H](C)[C@@](C#N)(C5CC5)C4=O)ccnn3c2)c(OC)nn1 [Example 98, (3R,4S)-3-cyclopropyl-1-(6-(3,6-dimethoxypyridazin-4-yl)pyrrolo[1,2-b]pyridazin-4-yl)-4-methyl-2-oxopyrrolidine-3-carbonitrile] | – | – | – | – | 50 to 100 | 1000 to 5000 | 1000 to 5000 | 5000 to 10000 |
| C[C@@H]1CN(c2nc(-c3cncc(Cl)c3)cn3nccc23)C(=O)[C@]1(C#N)C1CC1 [Example 248, (3R,4S)-1-(6-(5-chloropyridin-3-yl)pyrazolo[1,5-a]pyrazin-4-yl)-3-cyclopropyl-4-methyl-2-oxopyrrolidine-3-carbonitrile trifluoroacetate] | 20 to 50 | 100 to 1000 | 1000 to 5000 | 1000 to 5000 | – | – | – | – |
| COc1ncccc1-c1cn2nccc2c(N2C[C@@H](C)[C@@](C#N)(C3CC3)C2=O)n1 [Example 250, (3R,4S)-3-cyclopropyl-1-(6-(2-methoxypyridin-3-yl)pyrazolo[1,5-a]pyrazin-4-yl)-4-methyl-2-oxopyrrolidine-3-carbonitrile] | 20 to 50 | 100 to 1000 | 1000 to 5000 | 1000 to 5000 | – | – | – | – |
| C[C@@H]1CN(c2nc(-c3cncnc3)cn3nccc23)C(=O)[C@]1(C#N)C1CC1 [Example 265, (3R,4S)-3-cyclopropyl-4-methyl-2-oxo-1-(6-(pyrimidin-5-yl)pyrazolo[1,5-a]pyrazin-4-yl)pyrrolidine-3-carbonitrile trifluoroacetate] | 50 to 100 | 1000 to 5000 | 1000 to 5000 | 1000 to 5000 | – | – | – | – |
| Cc1ccc(-n2nc(N3C[C@@H](C)[C@@](C#N)(C4CC4)C3=O)c3ccncc32)cn1 [Example 282, (3R,4S)-3-cyclopropyl-4-methyl-1-(1-(6-methylpyridin-3-yl)-1H-pyrazolo[3,4-c]pyridin-3-yl)-2-oxopyrrolidine-3-carbonitrile] | 20 to 50 | 1000 to 5000 | 1000 to 5000 | 1000 to 5000 | – | – | – | – |
| CCc1ncccc1-c1cc2c(N3C[C@@H](C)[C@@](C#N)(C4CC4)C3=O)ccnn2c1 [Example 178, (3R,4S)-3-cyclopropyl-1-(6-(2-ethylpyridin-3-yl)pyrrolo[1,2-b]pyridazin-4-yl)-4-methyl-2-oxopyrrolidine-3-carbonitrile trifluoroacetate] | – | – | – | – | > 100 | 5000 to 10000 | > 10000 | 5000 to 10000 |
| COc1cncc(-c2cn3ncc(F)c3c(N3C[C@@H](C)[C@@](C#N)(C4CC4)C3=O)n2)c1 [Example 223, (3R,4S)-3-cyclopropyl-1-(3-fluoro-6-(5-methoxypyridin-3-yl)pyrazolo[1,5-a]pyrazin-4-yl)-4-methyl-2-oxopyrrolidine-3-carbonitrile] | 50 to 100 | 1000 to 5000 | 1000 to 5000 | 1000 to 5000 | – | – | – | – |
| Cn1cc(-c2cc3c(N4CC[C@H](C5CC5)C4=O)ccnn3c2)cn1 (single isomer, unassigned) [Example 36] | – | – | – | – | > 100 | > 10000 | 5000 to 10000 | > 10000 |
| Cn1cc(-c2cc3c(N4CC[C@@](C#N)(C5CCC5)C4=O)ccnn3c2)cn1 (single isomer, unassigned) [Example 46] | – | – | – | – | > 100 | 5000 to 10000 | 1000 to 5000 | 100 to 1000 |
| Cn1cc(-c2cc3c(N4CC[C@](C#N)(C5COC5)C4=O)ccnn3c2)cn1 (single isomer, unassigned) [Example 44] | – | – | – | – | > 100 | > 10000 | > 10000 | > 10000 |

Further lines, results first:

| IC50 ([1]; TYK2 JH1, ADP-Glo) [nM] | IC50 ([2]; JAK1 JH1, ADP-Glo) [nM] | IC50 ([3]; JAK2 JH1, ADP-Glo) [nM] | IC50 ([4]; JAK3 JH1, ADP-Glo) [nM] | IC50 ([1]; JH1 kinase domain, ADP-Glo) [nM] | IC50 ([2]; JH1 kinase domain, ADP-Glo) [nM] | IC50 ([3]; JH1 kinase domain, ADP-Glo) [nM] | IC50 ([4]; JH1 kinase domain, ADP-Glo) [nM] | Compound |
| --- | --- | --- | --- | --- | --- | --- | --- | --- |
| > 100 | > 10000 | > 10000 | > 10000 | – | – | – | – | C[C@@H]1CN(c2cccn3nc(-c4cnn(C)c4)cc23)C(=O)[C@]1(C#N)C1CC1 [Example 272, (3R,4S)-3-cyclopropyl-4-methyl-1-(2-(1-methyl-1H-pyrazol-4-yl)pyrazolo[1,5-a]pyridin-4-yl)-2-oxopyrrolidine-3-carbonitrile] |
| – | – | – | – | > 100 | > 10000 | > 10000 | > 10000 | CC[C@@H]1CN(c2ccnn3cc(-c4cnn(C)c4)cc23)C(=O)[C@@]1(C#N)C1CC1 [Example 26, (3S,4S)-3-cyclopropyl-4-ethyl-1-(6-(1-methyl-1H-pyrazol-4-yl)pyrrolo[1,2-b]pyridazin-4-yl)-2-oxopyrrolidine-3-carbonitrile] |
| – | – | – | – | 50 to 100 | 1000 to 5000 | > 10000 | 5000 to 10000 | Cc1ccc(O)c(-c2cc3c(N4C[C@@H](C)[C@@](C#N)(C5CC5)C4=O)ccnn3c2)n1 [Example 140, (3R,4S)-3-cyclopropyl-1-(6-(3-hydroxy-6-methylpyridin-2-yl)pyrrolo[1,2-b]pyridazin-4-yl)-4-methyl-2-oxopyrrolidine-3-carbonitrile trifluoroacetate] |
| > 100 | 1000 to 5000 | > 10000 | 1000 to 5000 | – | – | – | – | C[C@@H]1CN(c2nc(-c3ccn(C)n3)cn3nccc23)C(=O)[C@]1(C#N)C1CC1 [Example 229, (3R,4S)-3-cyclopropyl-4-methyl-1-(6-(1-methyl-1H-pyrazol-3-yl)pyrazolo[1,5-a]pyrazin-4-yl)-2-oxopyrrolidine-3-carbonitrile trifluoroacetate] |
| – | – | – | – | 50 to 100 | 100 to 1000 | 1000 to 5000 | 1000 to 5000 | COc1ncc(-c2cc3c(N4C[C@@H](C)[C@@](C#N)(C5CC5)C4=O)ccnn3c2)cn1 [Example 76, (3R,4S)-3-cyclopropyl-1-(6-(2-methoxypyrimidin-5-yl)pyrrolo[1,2-b]pyridazin-4-yl)-4-methyl-2-oxopyrrolidine-3-carbonitrile] |
| – | – | – | – | > 100 | > 10000 | > 10000 | > 10000 | C[C@@H]1CN(c2ccnn3cc(-c4cnn(C)c4)cc23)C(=O)[C@@]1(C#N)C1CC1 [Example 21, (3S,4S)-3-cyclopropyl-4-methyl-1-(6-(1-methyl-1H-pyrazol-4-yl)pyrrolo[1,2-b]pyridazin-4-yl)-2-oxopyrrolidine-3-carbonitrile] |
| > 100 | > 10000 | > 10000 | > 10000 | – | – | – | – | Cc1cnn(-c2cc3c(N4C[C@@H](C)[C@@](C#N)(C5CC5)C4=O)ccnn3c2)n1 [Example 343, (3R,4S)-3-cyclopropyl-4-methyl-1-(6-(4-methyl-2H-1,2,3-triazol-2-yl)pyrrolo[1,2-b]pyridazin-4-yl)-2-oxopyrrolidine-3-carbonitrile] |
| – | – | – | – | > 100 | > 10000 | > 10000 | > 10000 | C[C@@H]1CN(c2ccnn3c(F)c(-c4cnn(C)c4)nc23)C(=O)[C@]1(C#N)C1CC1 [Example 183, (3R,4S)-3-cyclopropyl-1-(3-fluoro-2-(1-methyl-1H-pyrazol-4-yl)imidazo[1,2-b]pyridazin-8-yl)-4-methyl-2-oxopyrrolidine-3-carbonitrile] |
| – | – | – | – | 20 to 50 | 100 to 1000 | 1000 to 5000 | 100 to 1000 | COc1cccc(-c2cc3c(N4C[C@@H](C)[C@@](C#N)(C5CC5)C4=O)ccnn3c2)n1 [Example 143, (3R,4S)-3-cyclopropyl-1-(6-(6-methoxypyridin-2-yl)pyrrolo[1,2-b]pyridazin-4-yl)-4-methyl-2-oxopyrrolidine-3-carbonitrile trifluoroacetate] |
| > 100 | > 10000 | 1000 to 5000 | > 10000 | – | – | – | – | C[C@@H]1CN(c2ncnc3cc(-c4cnn(C)c4)sc23)C(=O)[C@]1(C#N)C1CC1 [Example 286, (3R,4S)-3-cyclopropyl-4-methyl-1-(6-(1-methyl-1H-pyrazol-4-yl)thieno[3,2-d]pyrimidin-4-yl)-2-oxopyrrolidine-3-carbonitrile] |
